Converted amounts (≈) assume the structure as drawn.
Columns and labels:
Beta-1,3-glucan synthase = target: T1, Beta-1,3-glucan synthase (Candida albicans, UniProt O13383); assay: Inhibition of 1,3-beta-D-glucan synthase in Candida albicans BWP17 membranes; assay type: cell membranes
T1 sequence (O13383 whole entry): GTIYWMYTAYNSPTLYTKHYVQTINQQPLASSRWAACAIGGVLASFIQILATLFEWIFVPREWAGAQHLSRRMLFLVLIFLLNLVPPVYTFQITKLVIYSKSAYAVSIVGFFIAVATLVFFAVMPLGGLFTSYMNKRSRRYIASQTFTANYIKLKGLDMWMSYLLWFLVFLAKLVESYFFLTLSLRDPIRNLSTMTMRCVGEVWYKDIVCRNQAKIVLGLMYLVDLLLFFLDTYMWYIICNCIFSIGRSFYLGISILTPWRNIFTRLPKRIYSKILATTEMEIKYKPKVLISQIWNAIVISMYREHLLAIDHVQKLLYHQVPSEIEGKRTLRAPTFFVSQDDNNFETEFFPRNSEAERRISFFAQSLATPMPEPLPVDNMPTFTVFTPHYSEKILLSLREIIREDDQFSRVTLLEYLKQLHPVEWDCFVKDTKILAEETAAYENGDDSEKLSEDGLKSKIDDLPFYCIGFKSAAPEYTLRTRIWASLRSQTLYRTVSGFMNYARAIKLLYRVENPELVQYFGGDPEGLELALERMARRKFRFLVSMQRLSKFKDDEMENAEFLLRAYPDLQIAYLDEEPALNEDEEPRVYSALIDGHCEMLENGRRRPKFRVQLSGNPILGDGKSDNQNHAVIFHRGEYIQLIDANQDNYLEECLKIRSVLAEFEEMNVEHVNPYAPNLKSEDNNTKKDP

Nakaseomyces glabratus = assay: Antifungal activity against Candida glabrata C624 by broth dilution method; assay type: functional; conditions: read-out: MIC100
Candida albicans = assay: Antifungal activity against Candida albicans C693 by broth dilution method; assay type: functional; conditions: read-out: MIC100
Aspergillus fumigatus = assay: Antifungal activity against Aspergillus fumigatus ND158 by broth dilution method; assay type: functional; conditions: read-out: MEC
[1] = AUC (0 to 6 hrs) in rat at 10 mg/kg, po; assay type: ADME, organism-based, Plasma; set-up: time < 6 hr, dose 10 mg/kg, route oral; conditions: plasma
[2] = Cmax in rat at 10 mg/kg, po; assay type: ADME, organism-based; set-up: dose 10 mg/kg, route oral; conditions: in vivo

SMILES	IC50 (Beta-1,3-glucan synthase)	MIC (Nakaseomyces glabratus)	MIC (Candida albicans)	minimal effective concentration (Aspergillus fumigatus)	AUC(0-t) at 6 h [1]	Cmax [2]
CN(C)c1ccc(CS(=O)(=O)N2CCN(c3cnn(-c4cccc(Cl)c4)c(=O)c3OCC3(C)CC3)CC2)cc1	0.0874 µM	0.06 µg/mL (≈ 0.105 µM)	0.26 µg/mL (≈ 0.454 µM)	16.7 µg/mL		
CC1(COc2c(N3CCN(S(=O)(=O)Cc4ccc(N)cc4)CC3)cnn(-c3cccc(Cl)c3)c2=O)CC1	0.11 µM	0.26 µg/mL (≈ 0.478 µM)	1.04 µg/mL (≈ 1.91 µM)	4.2 µg/mL	8100 ng·h/mL	1900 ng/mL
O=c1c(OC2CCCC2)c(N2CCN(S(=O)(=O)Cc3ccccc3F)CC2)cnn1-c1cccc(Cl)c1	0.0731 µM	0.2 µg/mL (≈ 0.366 µM)	0.39 µg/mL (≈ 0.713 µM)			
O=c1c(OC2CCCC2)c(N2CCN(S(=O)(=O)Cc3cccc(F)c3)CC2)cnn1-c1cc(F)cc(F)c1	0.0729 µM	< 0.02 µg/mL	0.1 µg/mL (≈ 0.182 µM)			
Cc1cc(CS(=O)(=O)N2CCN(c3cnn(-c4cccc(Cl)c4)c(=O)c3OCC3(C)CC3)CC2)ccc1N	0.143 µM	0.13 µg/mL (≈ 0.233 µM)	1.04 µg/mL (≈ 1.86 µM)	2.08 µg/mL	15000 ng·h/mL	3000 ng/mL
CC1(COc2c(N3CCN(S(=O)(=O)Cc4ccc(N)nc4)CC3)cnn(-c3cccc(Cl)c3)c2=O)CC1	0.0917 µM	0.06 µg/mL (≈ 0.11 µM)	2.08 µg/mL (≈ 3.82 µM)	8.4 µg/mL	3100 ng·h/mL	1000 ng/mL
Nc1cccc(CS(=O)(=O)N2CCN(c3cnn(-c4cc(F)cc(F)c4)c(=O)c3OC3CCCC3)CC2)c1	0.128 µM	0.13 µg/mL (≈ 0.238 µM)	0.52 µg/mL (≈ 0.953 µM)		5700 ng·h/mL	
Cc1cc(CS(=O)(=O)N2CCN(c3cnn(-c4cc(F)cc(F)c4)c(=O)c3OCC3(C)CC3)CC2)ccc1N	0.125 µM	0.13 µg/mL (≈ 0.232 µM)	1.04 µg/mL (≈ 1.86 µM)	4.2 µg/mL	14500 ng·h/mL	3500 ng/mL
CC1(COc2c(N3CCN(S(=O)(=O)Cc4ccnc(N)c4)CC3)cnn(-c3cccc(Cl)c3)c2=O)CC1	0.275 µM	1.04 µg/mL (≈ 1.91 µM)	16.7 µg/mL (≈ 30.6 µM)	8.4 µg/mL		
CC1(COc2c(N3CCN(S(=O)(=O)Cc4cccc(N)c4)CC3)cnn(-c3cccc(Cl)c3)c2=O)CC1	0.0735 µM	0.13 µg/mL (≈ 0.239 µM)	0.52 µg/mL (≈ 0.956 µM)	1.04 µg/mL	5700 ng·h/mL	1400 ng/mL
O=C(O)c1ccc(CS(=O)(=O)N2CCN(c3cnn(-c4cccc(Cl)c4)c(=O)c3OC3CCCC3)CC2)cc1	4.19 µM	25 µg/mL (≈ 43.6 µM)	> 50 µg/mL			
O=c1c(OC2CCCC2)c(N2CCN(S(=O)(=O)Cc3cc(Cl)cc(Cl)c3)CC2)cnn1-c1cccc(Cl)c1	0.351 µM	0.39 µg/mL (≈ 0.652 µM)	> 50 µg/mL			
CNc1ccc(CS(=O)(=O)N2CCN(c3cnn(-c4cccc(Cl)c4)c(=O)c3OCC3(C)CC3)CC2)cc1	0.0179 µM	0.78 µg/mL (≈ 1.4 µM)	0.2 µg/mL (≈ 0.358 µM)	> 50 µg/mL		
CC1(COc2c(N3CCN(S(=O)(=O)Cc4ccc(N)c(F)c4)CC3)cnn(-c3cc(F)cc(F)c3)c2=O)CC1	0.0532 µM	0.06 µg/mL (≈ 0.106 µM)	0.26 µg/mL (≈ 0.461 µM)	2.08 µg/mL	890 ng·h/mL	310 ng/mL
O=c1c(OC2CCCC2)c(N2CCN(S(=O)(=O)Cc3ccncc3)CC2)cnn1-c1cc(F)cc(F)c1	0.564 µM	0.2 µg/mL (≈ 0.376 µM)	3.1 µg/mL (≈ 5.83 µM)		20 ng·h/mL	
O=c1c(OC2CCCc3ncccc32)c(N2CCN(S(=O)(=O)Cc3ccccc3)CC2)cnn1-c1cccc(Cl)c1 (stereo not given)	6.76 µM	1.6 µg/mL (≈ 2.7 µM)	> 50 µg/mL			
COc1cc(CS(=O)(=O)N2CCN(c3cnn(-c4cccc(Cl)c4)c(=O)c3OCC3(C)CC3)CC2)ccc1N	0.105 µM	0.06 µg/mL (≈ 0.105 µM)	0.52 µg/mL (≈ 0.906 µM)	2.08 µg/mL	13100 ng·h/mL	3300 ng/mL
O=c1c(OC2CCCC2)c(N2CCN(S(=O)(=O)Cc3cccc(Cl)c3)CC2)cnn1-c1cccc(Cl)c1	0.16 µM	0.05 µg/mL (≈ 0.0887 µM)	1.56 µg/mL (≈ 2.77 µM)			
CCc1cc(CS(=O)(=O)N2CCN(c3cnn(-c4cccc(Cl)c4)c(=O)c3OCC3(C)CC3)CC2)ccc1N	0.315 µM	0.13 µg/mL (≈ 0.227 µM)	4.2 µg/mL (≈ 7.34 µM)	4.2 µg/mL	9400 ng·h/mL	2300 ng/mL
CC1(COc2c(N3CCN(S(=O)(=O)Cc4ccc(N)c(C(N)=O)c4)CC3)cnn(-c3cccc(Cl)c3)c2=O)CC1	0.511 µM	8.34 µg/mL (≈ 14.2 µM)	> 33 µg/mL	> 33 µg/mL		

— ChEMBL document CHEMBL2057100, “The optimization of pyridazinone series of glucan synthase inhibitors” (Bioorg Med Chem Lett, 2012)
